Assay results as given in article PMC9527342, “An in vitro assay for enzymatic studies on human ALG13/14 heterodimeric UDP-N-acetylglucosamine transferase” (Frontiers in Cell and Developmental Biology, 2022).
Residue numbers refer to the chain shown, from its start. In names and notes the source's numbering stands.

T1: recombinant human ALG13/14 complex (FLAG-ALG13-iso2/6His-ALG14) (Homo sapiens, UniProt Q96F25+Q9NP73)
T1 construct: pelB-FLAG-ALG13-iso2 (25 kDa on SDS-PAGE) and 6His-ALG14 (22 kDa) co-expressed in E. coli Rosetta (DE3); purified from Triton X-100 membrane extract by HisTrap and anti-FLAG; tags kept; heterodimer, 45-66 kDa on native PAGE
T1 sequence (Q9NP73 1-165 isoform Q9NP73-2): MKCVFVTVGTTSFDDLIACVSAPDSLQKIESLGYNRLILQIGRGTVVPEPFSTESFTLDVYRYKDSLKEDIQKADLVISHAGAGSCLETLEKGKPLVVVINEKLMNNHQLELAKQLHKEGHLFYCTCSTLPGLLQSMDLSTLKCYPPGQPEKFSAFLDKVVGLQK
T1 sequence (Q96F25 1-216): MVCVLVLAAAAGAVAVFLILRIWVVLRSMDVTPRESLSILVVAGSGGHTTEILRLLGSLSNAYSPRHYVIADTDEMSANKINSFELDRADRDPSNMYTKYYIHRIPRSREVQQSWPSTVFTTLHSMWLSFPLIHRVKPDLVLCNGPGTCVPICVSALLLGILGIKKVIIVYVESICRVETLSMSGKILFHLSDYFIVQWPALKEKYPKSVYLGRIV

T2: 6His-ALG14 (human ALG14) (human) (UniProt Q96F25)
T2 sequence: T1 sequence (Q96F25 1-216)

B1: FLAG-tagged ALG13-iso2 T141L (natural protein)
chain: T1 sequence (Q9NP73 1-165 isoform Q9NP73-2) with T141L

Key:
[1] = target: T1, recombinant human ALG13/14 complex (FLAG-ALG13-iso2/6His-ALG14); experiment: LC-MS (UPLC-ESI-MS) of acid-released glycans, Michaelis-Menten fit; format: biochemical; details: acceptor 20-100 μM; 2 mM UDP-GlcNAc fixed; Tris/HCl pH 7.5, 0.3% NP-40, 23% glycerol, 37 °C, 15 min; no added metal; read-out: K m (apparent)
[2] = target: T2, 6His-ALG14 (human ALG14) (human)

Row | Km [1] | Relative activity (%): GnTase conversion rate of the mutant / that of the wild type, detergent extract of E. coli membranes, 0.1 ng/ul ALG13, 37°C, 15 min [2] | Molecule
1 | 94.1 ± 9.4 µM | – | CC(=O)N[C@H]1[C@@H](OP(=O)(O)OP(=O)(O)OCC[C@@H](C)CC/C=C(/C)CC/C=C(/C)CC/C=C(/C)CC/C=C(/C)CC/C=C(/C)CC/C=C(/C)CC/C=C(/C)CC/C=C(/C)CC/C=C(/C)CC/C=C(/C)CC/C=C(/C)CC/C=C(/C)CC/C=C(/C)CC/C=C(/C)CC/C=C(/C)CC/C=C(\C)CC/C=C(\C)CCC=C(C)C)O[C@H](CO)[C@@H](O)[C@@H]1O [Gn-PDol (C95)]
2 | – | 26% | B1
